Target: T1, human ROCKα/ROCKII mix (Homo sapiens, UniProt O75116)
T1 construct: purchased Upstate Biotechnology 14-451
Test: ROCK inhibition, fluorescence polarization (FP) assay with ROCK IMAP Kit
Assay type: biochemical
Details: Table 1, compounds of Formula IV20
Method: The compounds were tested for inhibition of human ROCKα/ROCKII mix.
The inhibition assays were performed with a fluorescence polarization (FP) assay using the commercially available ROCK IMAP Kit from Molecular Devices (Product ID. No. R8093), essentially in accordance with the protocol supplied by the manufacturer. […] The enzyme mix ROCKα/ROCKII was obtained from Upstate Biotechnology (Product ID No 14-451).
In summary, all compounds were screened in the wells of a 384 well plate for enzymatic inhibition with concentrations varying from 100 μM to 0.3 nM using a stepwise 3 (or 2)-fold dilution.
To perform the assay, 1 μl of a solution of the compound to be tested in DMSO (at each concentration) was added to 2 μl of a solution of the enzyme in 10 mM Tris-HCl, 10 mM MgCl2, 0.1% BSA, 0.05% NaN3, pH 7.2. The final concentration of the enzyme was 2.6 nM.
After incubating for 30 minutes at RT, 2 μl of a mixture of ATP and the protein substrate in 10 mM Tris-HCl, 10 mM MgCl2, 0.1% BSA, 0.05% NaN3, pH 7.2 was added. The final concentration of the ATP was 10 μM and final concentration of protein substrate was 0.2 μM.
After incubating for 60 minutes at RT, 12 μl of the IMAP Binding Solution (mix of the IMAP Binding Buffer A (1×) and the IMAP Binding Reagent (from the ROCK IMAP kit)) was added.
The mixture thus obtained (total volume: 17 μl) was incubated for 60 minutes at RT, upon which the fluorescence polarization was measured using an automated plate reader (Perkin Elmer, Model Envision 2100-0010 HTS) with FP filters: excitation filter FITC FP 480 and emission filters FITC FP P-pol 535 and FITC FP S-pol 535 (Perkin-Elmer). The results were fitted to a curve using the XL-Fit algorithm and IC50 values were calculated for each fitted curve, again using the XL-Fit algorithm.

T1 sequence (O75116 whole entry): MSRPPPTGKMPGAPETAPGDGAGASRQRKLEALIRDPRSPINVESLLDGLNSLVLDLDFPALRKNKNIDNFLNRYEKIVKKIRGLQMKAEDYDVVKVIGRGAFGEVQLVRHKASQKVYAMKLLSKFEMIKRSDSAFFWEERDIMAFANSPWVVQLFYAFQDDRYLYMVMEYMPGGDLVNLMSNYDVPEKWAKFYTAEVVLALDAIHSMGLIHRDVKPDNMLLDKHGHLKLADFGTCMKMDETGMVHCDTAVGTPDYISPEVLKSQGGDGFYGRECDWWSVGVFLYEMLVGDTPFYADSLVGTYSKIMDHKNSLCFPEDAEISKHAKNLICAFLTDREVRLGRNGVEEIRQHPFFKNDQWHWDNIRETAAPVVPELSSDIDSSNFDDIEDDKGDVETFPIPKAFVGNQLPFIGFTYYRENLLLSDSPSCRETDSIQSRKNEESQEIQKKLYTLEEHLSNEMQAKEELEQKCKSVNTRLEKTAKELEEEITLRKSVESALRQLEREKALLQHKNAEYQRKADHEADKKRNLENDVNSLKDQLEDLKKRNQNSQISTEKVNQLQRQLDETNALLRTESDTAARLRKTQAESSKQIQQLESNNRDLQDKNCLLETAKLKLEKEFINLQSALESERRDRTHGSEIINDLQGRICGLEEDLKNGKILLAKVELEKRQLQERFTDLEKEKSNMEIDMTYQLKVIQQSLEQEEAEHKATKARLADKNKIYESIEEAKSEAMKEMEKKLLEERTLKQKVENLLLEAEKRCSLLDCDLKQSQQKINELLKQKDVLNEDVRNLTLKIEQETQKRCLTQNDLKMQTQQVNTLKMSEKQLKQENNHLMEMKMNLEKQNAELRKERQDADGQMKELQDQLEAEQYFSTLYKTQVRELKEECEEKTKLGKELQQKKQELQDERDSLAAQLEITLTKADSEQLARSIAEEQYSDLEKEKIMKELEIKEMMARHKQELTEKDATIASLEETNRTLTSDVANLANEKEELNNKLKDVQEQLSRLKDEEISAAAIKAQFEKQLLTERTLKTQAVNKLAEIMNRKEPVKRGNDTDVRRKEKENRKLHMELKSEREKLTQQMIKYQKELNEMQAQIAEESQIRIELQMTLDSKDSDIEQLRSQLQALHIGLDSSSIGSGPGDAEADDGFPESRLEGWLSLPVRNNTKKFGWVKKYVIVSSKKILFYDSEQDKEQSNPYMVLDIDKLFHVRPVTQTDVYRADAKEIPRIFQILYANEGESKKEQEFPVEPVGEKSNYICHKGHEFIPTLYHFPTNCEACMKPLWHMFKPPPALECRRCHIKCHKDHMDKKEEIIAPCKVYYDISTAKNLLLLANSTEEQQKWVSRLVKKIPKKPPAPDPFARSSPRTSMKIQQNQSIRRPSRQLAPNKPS

Row | Compound | IC50 [µM]
1 | NC(C(=O)NCc1ccccc1)c1ccc(C(=O)Nc2ccncc2)cc1 (stereo not shown) [Compound 1] | < 0.5
2 | CC(NC(=O)C(N)c1ccc(C(=O)Nc2ccncc2)cc1)c1ccccc1 (stereo not shown) [Compound 2, 4-[amino-(1-phenyl-ethylcarbamoyl)-methyl]-N-pyridin-4-yl-benzamide] | < 0.5
3 | CCC(NC(=O)C(N)c1ccc(C(=O)Nc2ccncc2)cc1)c1ccccc1 (stereo not shown) [Compound 4, 4-[amino-(1-phenyl-propylcarbamoyl)-methyl]-N-pyridin-4-yl-benzamide] | < 0.5
4 | NC(C(=O)NCc1ccccc1Cl)c1ccc(C(=O)Nc2ccncc2)cc1 (stereo not shown) [Compound 6, 4-[amino-(2-chloro-benzylcarbamoyl)-methyl]-N-pyridin-4-yl-benzamide] | < 0.5
5 | COc1ccc(CNC(=O)C(N)c2ccc(C(=O)Nc3ccncc3)cc2)cc1 (stereo not shown) [Compound 8, 4-[amino-(4-methoxy-benzylcarbamoyl)-methyl]-N-pyridin-4-yl-benzamide] | < 0.5
6 | COc1ccccc1CNC(=O)C(N)c1ccc(C(=O)Nc2ccncc2)cc1 (stereo not shown) [Compound 9, 4-(amino-(2-methoxy-benzylcarbamoyl)-methyl]-N-pyridin-4-yl-benzamide] | < 0.5
7 | NC(C(=O)NCc1ccccn1)c1ccc(C(=O)Nc2ccncc2)cc1 (stereo not shown) [Compound 10, 4-{amino-[(pyridin-2-ylmethyl)-carbamoyl]-methyl}-N-pyridin-4-yl-benzamide] | 0.5 to 5
8 | NC(C(=O)NCc1ccncc1)c1ccc(C(=O)Nc2ccncc2)cc1 (stereo not shown) [Compound 11, 4-{amino-[(pyridin-4-ylmethyl)-carbamoyl]-methyl}-N-pyridin-4-yl-benzamide] | 0.5 to 5
9 | NC(C(=O)N1CCc2ccccc2C1)c1ccc(C(=O)Nc2ccncc2)cc1 (stereo not shown) [Compound 13, 4-[1-amino-2-(3,4-dihydro-1H-isoquinolin-2-yl)-2-oxo-ethyl]-N-pyridin-4-yl-benzamide] | < 0.5
10 | NC(C(=O)NCCc1ccccc1)c1ccc(C(=O)Nc2ccncc2)cc1 (stereo not shown) [Compound 14, 4-(amino-phenethylcarbamoyl-methyl)-N-pyridin-4-yl-benzamide] | < 0.5
11 | NC(C(=O)NCCc1ccc(F)cc1)c1ccc(C(=O)Nc2ccncc2)cc1 (stereo not shown) [Compound 16, 4-{amino-[2-(4-fluoro-phenyl)ethylcarbamoyl]-methyl}-N-pyridin-4-yl-benzamide] | < 0.5
12 | COc1ccc(NC(=O)C(N)c2ccc(C(=O)Nc3ccncc3)cc2)cc1 (stereo not shown) [Compound 21] | < 0.5
13 | CC(C)C(C)NC(=O)C(N)c1ccc(C(=O)Nc2ccncc2)cc1 (stereo not shown) [Compound 23, 4-[amino-(1,2-dimethyl-propylcarbamoyl)-methyl]-N-pyridin-4-yl-benzamide] | 0.5 to 5
14 | CCC(C)(C)NC(=O)C(N)c1ccc(C(=O)Nc2ccncc2)cc1 (stereo not shown) [Compound 24, 4-[amino-(1,1-dimethyl-propylcarbamoyl)-methyl]-N-pyridin-4-yl-benzamide] | 0.5 to 5
15 | NC(C(=O)NCC1CC1)c1ccc(C(=O)Nc2ccncc2)cc1 (stereo not shown) [Compound 25, 4-[amino-(cyclopropylmethyl-carbamoyl)-methyl]-N-pyridin-4-yl-benzamide] | 0.5 to 5
16 | NC(C(=O)N1CCC(c2ccccc2)CC1)c1ccc(C(=O)Nc2ccncc2)cc1 (stereo not shown) [Compound 28, 4-[1-amino-2-(4-phenyl-piperidin-1-yl)-2-oxo-ethyl]-N-pyridin-4-yl-benzamide] | 0.5 to 5
17 | NC(C(=O)N1CC=C(c2ccc(F)cc2)CC1)c1ccc(C(=O)Nc2ccncc2)cc1 (stereo not shown) [Compound 29, 4-{1-amino-2-[4-(4-fluoro-phenyl)-3,6-dihydro-2H-pyridin-1-yl]-2-oxo-ethyl}-N-pyridin-4-yl-benzamide] | 0.5 to 5
18 | NC(C(=O)N1CCC(c2nc3ccccc3o2)CC1)c1ccc(C(=O)Nc2ccncc2)cc1 (stereo not shown) [Compound 30, 4-[1-amino-2-(4-benzooxazol-2-yl-piperidin-1-yl)-2-oxo-ethyl]-N-pyridin-4-yl-benzamide] | < 0.5
19 | NC(C(=O)N1CCOCC1)c1ccc(C(=O)Nc2ccncc2)cc1 (stereo not shown) [Compound 34, 4-(1-amino-2-mopholin-4-yl-2-oxo-ethyl)-N-pyridin-4-yl-benzamide] | < 0.5

Second part, the compound after the results:

Row | IC50 [µM] | Compound
20 | < 0.5 | 4-[1-amino-2-(1-methyl-piperidin-1-yl)-2-oxo-ethyl]-N-pyridin-4-yl-benzamide [Compound 26]
21 | < 0.5 | CN(Cc1ccccc1)C(=O)C(N)c1ccc(C(=O)Nc2ccncc2)cc1 (stereo not shown) [Compound 3, 4-[amino-(benzyl-methyl-carbamoyl)-methyl]-N-pyridin-4-yl-benzamide]
22 | 0.5 to 5 | CC[C@H](NC(=O)C(N)c1ccc(C(=O)Nc2ccncc2)cc1)c1ccccc1 (stereo partly drawn) [Compound 5, 4-[amino-(1-(S)-phenyl-propylcarbamoyl)-methyl]-N-pyridin-4-yl-benzamide]
23 | < 0.5 | NC(C(=O)NCc1cccc(Cl)c1)c1ccc(C(=O)Nc2ccncc2)cc1 (stereo not shown) [Compound 7, 4-[amino-(3-chloro-benzylcarbamoyl)-methyl]-N-pyridin-4-yl-benzamide]
24 | < 0.5 | NC(C(=O)NCc1ccco1)c1ccc(C(=O)Nc2ccncc2)cc1 (stereo not shown) [Compound 12, 4-{amino-[(furan-2-ylmethyl)-carbamoyl]-methyl}-N-pyridin-4-yl-benzamide]
25 | < 0.5 | NC(C(=O)NC1Cc2ccccc2C1)c1ccc(C(=O)Nc2ccncc2)cc1 (stereo not shown) [Compound 15, 4-[amino-(indan-2-ylcarbamoyl)-methyl]-N-pyridin-4-yl-benzamide]
26 | < 0.5 | NC(C(=O)NCCc1cccs1)c1ccc(C(=O)Nc2ccncc2)cc1 (stereo not shown) [Compound 17, 4-[amino-(2-thiophen-2-yl-ethylcarbamoyl)-methyl]-N-pyridin-4-yl-benzamide]
27 | 0.5 to 5 | NC(C(=O)NCCn1cccn1)c1ccc(C(=O)Nc2ccncc2)cc1 (stereo not shown) [Compound 18, 4-[amino-(2-pyrazol-1-yl-ethylcarbamoyl)-methyl]-N-pyridin-4-yl-benzamide]
28 | 0.5 to 5 | NC(C(=O)NCCn1ccnc1)c1ccc(C(=O)Nc2ccncc2)cc1 (stereo not shown) [Compound 19, 4-[amino-(2-imidazol-1-yl-ethylcarbamoyl)-methyl]-N-pyridin-4-yl-benzamide]
29 | 0.5 to 5 | NC(C(=O)Nc1ccccc1)c1ccc(C(=O)Nc2ccncc2)cc1 (stereo not shown) [Compound 20, 4-(amino-phenylcarbamoyl-methyl)-N-pyridin-4-yl-benzamide]
30 | 0.5 to 5 | CCNC(=O)C(N)c1ccc(C(=O)Nc2ccncc2)cc1 (stereo not shown) [Compound 22, 4-(amino-ethylcarbamoyl-methyl)-N-pyridin-4-yl-benzamide]
31 | < 0.5 | CC1CC(C)CN(C(=O)C(N)c2ccc(C(=O)Nc3ccncc3)cc2)C1 (stereo not shown) [Compound 27, 4-[1-amino-2-(3,5-dimethyl-piperidin-1-yl)-2-oxo-ethyl]-N-pyridin-4-yl-benzamide]
32 | 0.5 to 5 | NC(C(=O)N1CCC(Cc2ccccc2)CC1)c1ccc(C(=O)Nc2ccncc2)cc1 (stereo not drawn) [Compound 31, 4-[1-amino-2-(4-benzyl-piperidin-l-yl)-2-oxo-ethyl]-N-pyridin-4-yl-benzamide]
33 | 0.5 to 5 | NC(C(=O)NC1CCCCC1)c1ccc(C(=O)Nc2ccncc2)cc1 (stereo not shown) [Compound 32, 4-(amino-cyclohexylcarbamoyl-methyl)-N-pyridin-4-yl-benzamide]
34 | 0.5 to 5 | CC1CCC(NC(=O)C(N)c2ccc(C(=O)Nc3ccncc3)cc2)CC1 (stereo not shown) [Compound 33, 4-[amino-(4-methyl-cyclohexylcarbamoyl)-methyl]-N-pyridin-4-yl-benzamide]
